Series [1] can be described thus: physchem.
Description: Dissociation constant (pKa)
Series [2] in a line: I/U ratio for neutral amino acids. It is filed as functional.
For series [3], the species on record is Felis catus. In words: In vitro effect of Gamma-aminobutyric acid enhancement on single neurons of cat spinal cord. It is filed as functional.
The target of series [4] is GABA-A receptor; anion channel.
For series [5], the target named is T1, GABA transporter (Rattus norvegicus, UniProt P31647+P23978+P31646+P48056). It is filed as functional, subcellular, Brain.
For series [6], the target named is T2, GABA-A receptor; anion channel (Homo sapiens) (UniProt P14867+P47870+P18507+P28472+P48169+Q99928+Q9UN88+P34903+O00591+O14764+Q8N1C3+P18505+P78334+P47869+P31644+Q16445). To be noted: Felis catus; Spinal cord; filed as agonist.
The species named for series [7] is Felis catus. The series can be described thus: In vitro effect of Gamma-aminobutyric acid enhancement on single neurons of cat spinal cord (ND = no data, No significant activity). It is filed as functional.
The species entered for series [8] is Felis catus. In words: In vitro effect of glycine antagonism on single neurons of cat spinal cord; Glycine antagonists are indicated by Delta symbol. It is filed as functional, organism-based. The conditions noted are these: filed as antagonist.
Series [9] is filed under the species Felis catus. The series can be described thus: In vitro effect of Gamma-aminobutyric acid enhancement on single neurons of cat spinal cord (No significant activity). It is filed as functional.
For series [10], the species on record is Felis catus. The series can be described thus: In vitro effect of glycine antagonism on single neurons in the cat spinal cord; Glycine antagonists are indicated by the Delta symbol. It is filed as functional, organism-based. To be noted: filed as antagonist.
A short description of series [11]: I/U ratio for neutral amino acids. It is filed as functional.
Series [12] is filed under the species Felis catus. The series can be described thus: In vitro effect of GABA enhancement on single neurons in the cat spinal cord;. It is filed as functional, organism-based.
For series [13], the target named is T1, GABA transporter. In words: In vitro effect on GABA uptake in a crude preparation of synaptosomes from rat brain. It is filed as functional, subcellular.
Series [14] addresses Gamma-aminobutyric acid receptor subunit gamma-1 (Rattus norvegicus, UniProt P23574). The series can be described thus: In vitro affinity for GABA binding sites on purified synaptic membranes from rat brain.
In series [15] the target is T2, GABA-A receptor; anion channel (Homo sapiens). The series can be described thus: In vitro effect on Gamma-aminobutyric acid agonism on single neurons of cat spinal cord (- is less active than GABA). It is filed as functional, tissue-based. The conditions noted are these: Felis catus, filed as partial agonist, target entry is the homologue from another species.

The structures appear in SMILES notation. The source made the active and inactive calls. The calls are words filed in the database; no cut-off is given here.

The term pKa denotes the pH at which an ionisable group is half protonated. The low end stands for a stronger acid or weaker base, the high end for a weaker acid or stronger base. Usually IC50 stands for the concentration at which inhibition is half-maximal.

Chain of Gamma-aminobutyric acid receptor subunit gamma-1 (P23574 whole entry): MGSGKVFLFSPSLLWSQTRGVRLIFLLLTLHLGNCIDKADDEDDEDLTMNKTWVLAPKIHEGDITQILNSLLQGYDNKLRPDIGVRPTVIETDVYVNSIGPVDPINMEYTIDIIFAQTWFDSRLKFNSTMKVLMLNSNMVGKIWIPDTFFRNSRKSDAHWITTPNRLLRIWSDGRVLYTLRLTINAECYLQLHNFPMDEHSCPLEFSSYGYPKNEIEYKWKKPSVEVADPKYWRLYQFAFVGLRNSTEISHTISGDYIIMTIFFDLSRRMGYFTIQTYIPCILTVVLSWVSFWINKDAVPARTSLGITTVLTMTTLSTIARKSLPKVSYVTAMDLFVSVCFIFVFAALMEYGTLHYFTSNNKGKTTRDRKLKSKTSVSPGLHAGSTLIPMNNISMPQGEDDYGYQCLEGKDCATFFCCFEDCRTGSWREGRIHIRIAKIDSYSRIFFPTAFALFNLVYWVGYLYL

With `COC(=O)N1CCc2c(O)nsc2C1`, the pKa in series [1] is 7.3.
In series [1], `COc1noc2c1CCNC2` gave a pKa of 7.1.
`Oc1nsc2c1CNCC2`: the Ratio in series [2] is 63. Also, in [3], the GABA enhancement result was “Active”. In addition, the pKa in series [1] is 6.1. Also, the results for the IC50 in series [4] and in [5] were greater than 100 µM and 230 µM, respectively.
`COC(=O)N1CCc2snc(O)c2CC1`: in [1], the pKa turned out to be 7.6.
With `COC(=O)N1CCc2c(O)noc2C1`, the pKa in series [1] is 5.3.
On to `COC(=O)N1CCc2snc(O)c2C1`, for which the pKa in series [1] amounted to 7.4.
For `NCCCC(=O)O`, the GABA agonism result in [6] is “Agonist”.
On to `Oc1nsc2c1CCNCC2`, for which the Ratio in series [2] was 200. Besides, the GABA enhancement result in [7] is “inactive”. Also, the concentration for half-maximal inhibition (IC50) in [4] amounted to 31 µM; in series [5], 400 µM. Further, in series [8], the Glycine antagonism entry was “Antagonist”.
In series [1], `COc1noc2c1CNCC2` displayed a pKa of 7.7.
Same read-out and setting: for `O=C(O)N1CCc2onc(O)c2CC1` the value was 5.6.
`Oc1noc2c1CCNCC2`: the Ratio in series [2] amounted to 4000. Further, the GABA enhancement entry in series [9] was “inactive”. In [1], this compound came in with a pKa of 4.8. In addition, the Glycine antagonism entry in series [10] was “Antagonist”. Besides, the IC50 in [4] was 15 µM; in series [5] it was greater than 500 µM.
Consider `Oc1noc2c1CNCC2`, for which the Ratio in [11] is 2500. Further, the GABA enhancement result in series [12] is “Active”. Moreover, the results for the IC50 in [13] and in [14] were 160 µM and 72 µM, respectively.
Take `Oc1nsc2c1CCNC2`: in series [2], the Ratio was found to be 16. In series [15], the GABA agonism result is “Partial agonist”. Moreover, the pKa in series [1] was found to be 6.1. Also, the values for the IC50 in series [4] and in series [5] were 42 µM and 220 µM, respectively.

These data come from ChEMBL document CHEMBL1122237, “4,5,6,7-Tetrahydroisothiazolo[5,4-c]pyridin-3-ol and related analogues of THIP. Synthesis and biological activity” (J Med Chem, 1983).
